Here are results for 23 compounds from patent US7378435B2, “Aryl-isoxazole-4-carbonyl-indole-carboxylic acid amide derivatives” (Hoffmann-La Roche Inc., priority 2005, dated 2008).

Read-outs that look alike come from different tables or passages of the source.

The target of this test is T1, GABA A receptor α5β3γ2 (Homo sapiens, UniProt P18507+P31644).
T1 construct: expressed in transfected cells; host or cells: HEK293 (transiently transfected for the human receptors)
Kind of test: [3H]flumazenil competition binding, human GABA A α5β3γ2 receptors expressed in HEK293 cells. The procedure: The affinity of compounds at GABA A receptor subtypes was measured by competition for [3H]flumazenil (85 Ci/mmol; Roche) binding to HEK293 cells expressing rat (stably transfected) or human (transiently transfected) receptors of composition α1β3γ2, α2β3γ2, α3β3γ2 and α5β3γ2.
Cell pellets were suspended in Krebs-tris buffer (4.8 mM KCl, 1.2 mM CaCl2, 1.2 mM MgCl2, 120 mM NaCl, 15 mM Tris; pH 7.5; binding assay buffer), homogenized by polytron for ca. 20 sec on ice and centrifuged for 60 min at 4° C. (50000 g; Sorvall, rotor: SM24=20000 rpm). The cell pellets were resuspended in Krebs-tris buffer and homogenized by polytron for ca. 15 sec on ice. Protein was measured (Bradford method, Bio-Rad) and aliquots of 1 mL were prepared and stored at −80° C.
Radioligand binding assays were carried out in a volume of […] (96-well plates) which contained […] of cell membranes, [3H]flumazenil at a concentration of 1 nM for α1, α2, α3 subunits and 0.5 nM for α5 subunits and the test compound in the range of […]. Nonspecific binding was defined by 10^−5 M diazepam and typically represented less than 5% of the total binding. Assays were incubated to equilibrium for 1 hour at 4° C. and harvested onto GF/C uni-filters (Packard) by filtration using a Packard harvester and washing with ice-cold wash buffer (50 mM Tris; pH 7.5). After drying, filter-retained radioactivity was detected by liquid scintillation counting. Ki values were calculated using Excel-Fit (Microsoft) and are the means of two determinations.

Setting [1] is: Table 1, human α5, [3H]flumazenil, mean of two determinations, read-out: Ki h.
Setting [2] is: human α5β3γ2, 0.5 nM [3H]flumazenil, mean of two determinations, read-out: Ki[μM] hα5.

`CC(C)c1onc(-c2cccc(F)c2)c1C(=O)c1c[nH]c2cc(C(=O)NCC3CC3)ccc12` [Example 37, 3-[3-(3-Fluoro-phenyl)-5-isopropyl-isoxazole-4-carbonyl]-1H-indole-6-carboxylicacidcyclopropylmethyl-amide]: under setting [1], the Ki (usually the equilibrium dissociation constant of an inhibitor or competing ligand from its target) stood at 0.0393 µM.
Consider `Cc1onc(-c2ccccc2)c1C(=O)c1c[nH]c2cc(C(=O)NCC3CC3)ccc12` [Example 2, 3-(5-Methyl-3-phenyl-isoxazole-4-carbonyl)-1H-indole-6-carboxylicacidcyclopropylmethyl-amide], for which the Ki by setting is: under setting [1], 0.00545 µM; under setting [2], 0.00545 µM.
Consider `Cc1onc(-c2ccc(F)cc2)c1C(=O)c1c[nH]c2cc(C(=O)NCCN3CCOCC3)ccc12` [Example 14, 3-[3-(4-Fluoro-phenyl)-5-methyl-isoxazole-4-carbonyl]-1H-indole-6-carboxylicacid (2-morpholin-4-yl-ethyl)-amide], for which the Ki was determined as 0.00455 µM under setting [1] and 0.00455 µM under setting [2].
As for `Cc1onc(-c2cccc(F)c2)c1C(=O)c1c[nH]c2cc(C(=O)NC3CCOCC3)ccc12` [Example 32, 3-[3-(3-Fluoro-phenyl)-5-methyl-isoxazole-4-carbonyl]-1H-indole-6-carboxylicacid (tetrahydro-pyran-4-yl)-amide], the Ki under setting [1] is 0.0418 µM.
`Cc1onc(-c2ccc(F)cc2)c1C(=O)c1c[nH]c2cc(C(=O)NCc3cccnc3)ccc12` [Example 24, 3-[3-(4-Fluoro-phenyl)-5-methyl-isoxazole-4-carbonyl]-1H-indole-6-carboxylicacid (pyridin-3-ylmethyl)-amide]: the inhibition constant Ki by setting is: under setting [1], 0.00225 µM; under setting [2], 0.00225 µM.
For `C#CCNC(=O)c1ccc2c(C(=O)c3c(-c4cccc(F)c4)noc3C)cn(C)c2c1` [Example 44, 3-[3-(3-Fluoro-phenyl)-5-methyl-isoxazole-4-carbonyl]-1-methyl-1H-indole-6-carboxylic acidprop-2-ynylamide], the Ki turned out to be 0.0383 µM.
On to `Cc1onc(-c2ccccc2)c1C(=O)c1c[nH]c2cc(C(=O)NCCN3CCOCC3)ccc12` [Example 6, 3-(5-Methyl-3-phenyl-isoxazole-4-carbonyl)-1H-indole-6-carboxylicacid (2-morpholin-4-yl-ethyl)-amide], for which the Ki runs as follows: under setting [1], 0.0033 µM; under setting [2], 0.0033 µM.
For `Cc1onc(-c2cccc(F)c2)c1C(=O)c1cn(-c2ccccc2)c2cc(C(=O)NCc3ccco3)ccc12` [Example 47, 3-[3-(3-Fluoro-phenyl)-5-methyl-isoxazole-4-carbonyl]-1-phenyl-1H-indole-6-carboxylic acid(furan-2-ylmethyl)-amide], the Ki under setting [1] was 0.0253 µM.
The compound `Cc1onc(-c2cccc(F)c2)c1C(=O)c1cn(C)c2cc(C(=O)NCC3CC3)ccc12` [Example 43, 3-[3-(3-Fluoro-phenyl)-5-methyl-isoxazole-4-carbonyl]-1-methyl-1H-indole-6-carboxylic acidcyclopropylmethyl-amide] returned a Ki of 0.0667 µM.
Consider `Cc1onc(-c2cccc(F)c2)c1C(=O)c1cn(C)c2cc(C(=O)NC3CCCC3)ccc12` [Example 46, 3-[3-(3-Fluoro-phenyl)-5-methyl-isoxazole-4-carbonyl]-1-methyl-1H-indole-6-carboxylic acidcyclopentylamide], for which, under setting [1], the inhibition constant (Ki) is 0.111 µM.
`Cc1onc(-c2ccc(F)cc2)c1C(=O)c1c[nH]c2cc(C(=O)NCCc3cnc[nH]3)ccc12` [Example 12, 3-[3-(4-Fluoro-phenyl)-5-methyl-isoxazole-4-carbonyl]-1H-indole-6-carboxylicacid [2-(1H-imidazol-4-yl)-ethyl]-amide]: the Ki was found to be 0.0026 µM under setting [1] and 0.0026 µM under setting [2].
Regarding `Cc1onc(-c2ccc(F)cc2)c1C(=O)c1c[nH]c2cc(C(=O)NCc3ccco3)ccc12` [Example 15, 3-[3-(4-Fluoro-phenyl)-5-methyl-isoxazole-4-carbonyl]-1H-indole-6-carboxylicacid (furan-2-ylmethyl)-amide], the Ki under setting [1] amounted to 0.00485 µM and the Ki under setting [2] was 0.00484 µM.
On to `CC(C)c1onc(-c2cccc(F)c2)c1C(=O)c1c[nH]c2cc(C(=O)NC3CCCC3)ccc12` [Example 40, 3-[3-(3-Fluoro-phenyl)-5-isopropyl-isoxazole-4-carbonyl]-1H-indole-6-carboxylicacidcyclopentylamide], for which the inhibition constant Ki under setting [1] was determined as 0.0447 µM.
On to `Cc1onc(-c2ccc(F)cc2)c1C(=O)c1c[nH]c2cc(C(=O)NCCO)ccc12` [Example 18, 3-[3-(4-Fluoro-phenyl)-5-methyl-isoxazole-4-carbonyl]-1H-indole-6-carboxylicacid (2-hydroxy-ethyl)-amide], for which the Ki runs as follows: under setting [1], 0.00185 µM; under setting [2], 0.00185 µM.
As for `Cc1onc(-c2ccc(F)cc2)c1C(=O)c1c[nH]c2cc(C(=O)NC3CCCC3)ccc12` [Example 22, 3-[3-(4-Fluoro-phenyl)-5-methyl-isoxazole-4-carbonyl]-1H-indole-6-carboxylicacidcyclopentylamide], the inhibition constant Ki is, setting by setting: under setting [1], 0.00975 µM; under setting [2], 0.00975 µM.
`Cc1onc(-c2ccccc2)c1C(=O)c1c[nH]c2cc(C(=O)NCc3ccco3)ccc12` [Example 7, 3-(5-Methyl-3-phenyl-isoxazole-4-carbonyl)-1H-indole-6-carboxylicacid (furan-2-ylmethyl)-amide]: the Ki is, setting by setting: under setting [1], 0.0053 µM; under setting [2], 0.0053 µM.
On to `Cc1onc(-c2ccc(F)cc2)c1C(=O)c1c[nH]c2cc(C(=O)NCc3ccncc3)ccc12` [Example 16, 3-[3-(4-Fluoro-phenyl)-5-methyl-isoxazole-4-carbonyl]-1H-indole-6-carboxylicacid (pyridin-4-ylmethyl)-amide], for which the Ki by setting is: under setting [1], 0.00365 µM; under setting [2], 0.00365 µM.
Regarding `Cc1onc(-c2cccc(F)c2)c1C(=O)c1c[nH]c2cc(C(=O)NC3CCC3)ccc12` [Example 34, 3-[3-(3-Fluoro-phenyl)-5-methyl-isoxazole-4-carbonyl]-1H-indole-6-carboxylicacidcyclobutylamide], the inhibitory constant (Ki) under setting [1] is 0.059 µM.
With `C#CCNC(=O)c1ccc2c(C(=O)c3c(-c4ccccc4)noc3C)c[nH]c2c1` [Example 3, 3-(5-Methyl-3-phenyl-isoxazole-4-carbonyl)-1H-indole-6-carboxylicacid prop-2-ynylamide], the Ki came out at 0.0029 µM under setting [1] and 0.0029 µM under setting [2].
In the case of `Cc1onc(-c2ccc(F)cc2)c1C(=O)c1c[nH]c2cc(C(=O)NC3CCOCC3)ccc12` [Example 21, 3-[3-(4-Fluoro-phenyl)-5-methyl-isoxazole-4-carbonyl]-1H-indole-6-carboxylicacid (tetrahydro-pyran-4-yl)-amide], the Ki runs as follows: under setting [1], 0.005 µM; under setting [2], 0.005 µM.
For the compound `C#CCNC(=O)c1ccc2c(C(=O)c3c(-c4ccc(F)cc4)noc3C)c[nH]c2c1` [Example 20, 3-[3-(4-Fluoro-phenyl)-5-methyl-isoxazole-4-carbonyl]-1H-indole-6-carboxylicacid prop-2-ynylamide], the Ki is, setting by setting: under setting [1], 0.00325 µM; under setting [2], 0.00325 µM.
Take `Cc1onc(-c2ccccc2)c1C(=O)c1c[nH]c2cc(C(=O)NC3CCC3)ccc12` [Example 9, 3-(5-Methyl-3-phenyl-isoxazole-4-carbonyl)-1H-indole-6-carboxylicacidcyclobutylamide]: the Ki was 0.00435 µM under setting [1] and 0.00435 µM under setting [2].
For `C#CCNC(=O)c1ccc2c(C(=O)c3c(-c4cccc(F)c4)noc3C)cn(-c3ccccc3)c2c1` [Example 49, 3-[3-(3-Fluoro-phenyl)-5-methyl-isoxazole-4-carbonyl]-1-phenyl-1H-indole-6-carboxylic acidprop-2-ynylamide], the Ki reads like this: under setting [1], 0.0085 µM; under setting [2], 0.0085 µM.
